IC50 data for two compounds are collected here from US11529356B2, “2-(morpholin-4-yl)-1,7-naphthyridines” (Bayer Pharma Aktiengesellschaft, priority 2014, dated 2022).

Assay [1] concerns Caco-2 cells. Briefly: Proliferation Assay Caco-2 (crystal violet). Format: cell-based. Particulars: Homo sapiens, Caco-2, Caco-2 cells; read-out: Inhibition of Caco-2 cell proliferation IC50.
Experimental: After 24 hours, the cells of one plate (zero plate) were dyed with crystal violet (see below), whereas the medium of the other plates was replaced with fresh culture medium (200 μl) to which the test substances were added in various concentrations (0 μM, and also in the range of 0.001-10 μM; the final concentration of the solvent dimethyl sulphoxide was 0.1 or 0.5%). The cells were incubated for 4 days in the presence of the test substances. […] After washing the fixed cells three times with water, the plates were dried at room temperature. The cells were stained by adding 100 μl/measurement point of a 0.1% strength crystal violet solution (pH adjusted to pH 3 by adding acetic acid). After washing the cells three times with water, the plates were dried at room temperature. The dye was dissolved by adding 100 μl/measurement point of a 10% strength acetic acid solution. […] The percentage change in cell growth was calculated by normalizing the measured values to the absorbance values of the zero plate (=0%) and the absorbance of the untreated (0 μM) cells (=100%). The IC50 values were determined by means of a four parameter fit.
Assay [2] addresses full-length human ATR protein (Homo sapiens (Human), UniProt Q13535). The assay can be described thus: Binding Assay ATR (TR-FRET tracer displacement). Particulars: tracer A. In general terms: In TR-FRET formats the signal depends on donor and acceptor labels being close together.
Text: To determine of binding activity of the test compounds, full-length human ATR protein was expressed and purified together with ATRIP as described above. Furthermore, a fluorescently labelled compound (either tracer A or B as described above) was used as a tracer molecule. Detection of the binding event of the tracer was achieved by time-resolved fluorescence energy transfer (TR-FRET). We used an anti-GST-Terbium antibody (CisBio) that binds to the GST-tag at the N-terminus of ATR-kinase. […] Displacement of the fluorescent tracer by a test compound leads to a reduction of the TR-FRET-signal.
For the assay 50 nl of a 100-fold concentrated solution of the test compound in DMSO was pipetted into a black low volume 384 well microtiter plate (MTP, Greiner Bio-One, Frickenhausen, Germany). […] The ATR-working solution was incubated for 30 min at 22° C. prior to dispensing to pre-form the complex of antiGST-Tb+GST-ATR+ATRIP. Then, 3 μl of the ATR-working solution were added to the test compound and the mixture was incubated for 10 min at 22° C. to allow pre-binding of the test compounds to ATR/ATRIP. Then, 2 μl of a 100 nM solution of either tracer A or B in assay buffer were added to the ATR-working solution. The resulting mixture was incubated for 30 min at 22° C. […] IC50 values were calculated by a 4 parameter fit using standard software (GraphPad prism or equivalent).

full-length human ATR protein, sequence (Q13535 other isoform, or with tags, fused parts or gaps): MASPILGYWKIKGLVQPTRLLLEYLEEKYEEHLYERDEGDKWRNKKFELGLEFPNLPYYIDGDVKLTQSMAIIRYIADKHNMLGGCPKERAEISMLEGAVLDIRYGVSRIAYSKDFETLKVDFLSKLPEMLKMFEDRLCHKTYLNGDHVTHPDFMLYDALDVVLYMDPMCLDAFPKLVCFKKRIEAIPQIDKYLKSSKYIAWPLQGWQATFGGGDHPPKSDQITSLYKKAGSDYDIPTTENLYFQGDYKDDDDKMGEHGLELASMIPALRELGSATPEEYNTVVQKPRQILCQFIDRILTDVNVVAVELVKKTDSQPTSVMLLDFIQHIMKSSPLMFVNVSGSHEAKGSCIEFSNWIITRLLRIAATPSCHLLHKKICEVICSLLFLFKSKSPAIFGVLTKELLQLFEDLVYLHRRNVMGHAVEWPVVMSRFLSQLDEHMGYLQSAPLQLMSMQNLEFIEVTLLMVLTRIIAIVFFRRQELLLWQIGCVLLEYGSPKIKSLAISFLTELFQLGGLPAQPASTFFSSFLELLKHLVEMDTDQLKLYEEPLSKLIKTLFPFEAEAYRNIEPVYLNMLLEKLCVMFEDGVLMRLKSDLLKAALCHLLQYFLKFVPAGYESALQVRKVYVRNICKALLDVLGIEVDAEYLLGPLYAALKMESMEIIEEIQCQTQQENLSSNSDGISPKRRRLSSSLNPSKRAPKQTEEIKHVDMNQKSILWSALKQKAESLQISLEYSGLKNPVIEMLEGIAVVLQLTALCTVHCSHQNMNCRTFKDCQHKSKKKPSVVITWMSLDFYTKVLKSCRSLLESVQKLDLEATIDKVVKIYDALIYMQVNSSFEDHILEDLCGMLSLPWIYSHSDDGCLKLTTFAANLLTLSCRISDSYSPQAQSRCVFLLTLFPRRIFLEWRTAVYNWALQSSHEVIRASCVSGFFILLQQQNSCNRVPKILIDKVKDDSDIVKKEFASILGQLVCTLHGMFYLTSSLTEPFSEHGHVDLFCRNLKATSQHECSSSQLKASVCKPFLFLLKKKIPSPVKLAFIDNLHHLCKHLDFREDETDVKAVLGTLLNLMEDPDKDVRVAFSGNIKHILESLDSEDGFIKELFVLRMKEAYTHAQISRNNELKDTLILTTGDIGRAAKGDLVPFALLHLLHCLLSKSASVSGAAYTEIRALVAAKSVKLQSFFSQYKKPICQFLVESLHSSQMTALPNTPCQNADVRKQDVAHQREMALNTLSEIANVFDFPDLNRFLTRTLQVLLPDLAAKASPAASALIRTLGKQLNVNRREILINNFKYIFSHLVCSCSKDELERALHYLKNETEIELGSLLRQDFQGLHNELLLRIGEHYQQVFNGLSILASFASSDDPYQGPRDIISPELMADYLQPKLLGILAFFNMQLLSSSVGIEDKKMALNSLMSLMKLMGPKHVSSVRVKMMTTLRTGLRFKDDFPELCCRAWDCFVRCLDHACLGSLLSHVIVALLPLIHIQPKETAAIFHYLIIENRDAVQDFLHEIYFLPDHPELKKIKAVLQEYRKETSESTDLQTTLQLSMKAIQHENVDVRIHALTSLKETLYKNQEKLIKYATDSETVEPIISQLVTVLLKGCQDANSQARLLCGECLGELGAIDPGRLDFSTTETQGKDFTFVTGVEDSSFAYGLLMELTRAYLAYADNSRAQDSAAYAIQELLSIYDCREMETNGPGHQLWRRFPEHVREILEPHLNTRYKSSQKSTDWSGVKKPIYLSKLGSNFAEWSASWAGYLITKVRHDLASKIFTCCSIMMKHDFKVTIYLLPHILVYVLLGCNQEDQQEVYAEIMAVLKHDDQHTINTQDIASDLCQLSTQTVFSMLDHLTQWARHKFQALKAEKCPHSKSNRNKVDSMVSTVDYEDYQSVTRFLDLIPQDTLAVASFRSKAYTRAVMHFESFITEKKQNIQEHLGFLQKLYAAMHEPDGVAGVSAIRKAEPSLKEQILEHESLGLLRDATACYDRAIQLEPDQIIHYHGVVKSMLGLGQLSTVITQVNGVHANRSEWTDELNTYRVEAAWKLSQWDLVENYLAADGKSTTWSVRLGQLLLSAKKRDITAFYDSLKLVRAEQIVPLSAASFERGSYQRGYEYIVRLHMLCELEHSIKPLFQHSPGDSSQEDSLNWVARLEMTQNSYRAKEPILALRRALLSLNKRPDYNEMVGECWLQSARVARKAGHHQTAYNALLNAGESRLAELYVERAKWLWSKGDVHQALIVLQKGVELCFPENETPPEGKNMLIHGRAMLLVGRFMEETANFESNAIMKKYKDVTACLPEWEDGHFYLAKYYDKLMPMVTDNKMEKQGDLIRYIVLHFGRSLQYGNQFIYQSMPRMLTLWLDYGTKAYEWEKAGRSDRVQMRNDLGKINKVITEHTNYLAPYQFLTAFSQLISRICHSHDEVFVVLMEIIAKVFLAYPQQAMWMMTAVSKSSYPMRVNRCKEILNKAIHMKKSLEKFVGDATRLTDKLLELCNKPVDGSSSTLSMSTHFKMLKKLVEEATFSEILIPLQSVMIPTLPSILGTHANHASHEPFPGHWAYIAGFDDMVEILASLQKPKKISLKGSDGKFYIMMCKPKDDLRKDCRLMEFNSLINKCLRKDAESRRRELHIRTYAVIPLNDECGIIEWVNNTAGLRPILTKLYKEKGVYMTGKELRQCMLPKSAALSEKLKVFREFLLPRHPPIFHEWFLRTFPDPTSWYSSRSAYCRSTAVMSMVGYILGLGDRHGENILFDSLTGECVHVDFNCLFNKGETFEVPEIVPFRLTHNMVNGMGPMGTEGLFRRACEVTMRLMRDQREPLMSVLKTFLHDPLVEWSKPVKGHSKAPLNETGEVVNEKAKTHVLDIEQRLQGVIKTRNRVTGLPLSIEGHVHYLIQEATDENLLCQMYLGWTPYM
full-length human ATR protein, sequence (Q8WXE1 other isoform, or with tags, fused parts or gaps partner): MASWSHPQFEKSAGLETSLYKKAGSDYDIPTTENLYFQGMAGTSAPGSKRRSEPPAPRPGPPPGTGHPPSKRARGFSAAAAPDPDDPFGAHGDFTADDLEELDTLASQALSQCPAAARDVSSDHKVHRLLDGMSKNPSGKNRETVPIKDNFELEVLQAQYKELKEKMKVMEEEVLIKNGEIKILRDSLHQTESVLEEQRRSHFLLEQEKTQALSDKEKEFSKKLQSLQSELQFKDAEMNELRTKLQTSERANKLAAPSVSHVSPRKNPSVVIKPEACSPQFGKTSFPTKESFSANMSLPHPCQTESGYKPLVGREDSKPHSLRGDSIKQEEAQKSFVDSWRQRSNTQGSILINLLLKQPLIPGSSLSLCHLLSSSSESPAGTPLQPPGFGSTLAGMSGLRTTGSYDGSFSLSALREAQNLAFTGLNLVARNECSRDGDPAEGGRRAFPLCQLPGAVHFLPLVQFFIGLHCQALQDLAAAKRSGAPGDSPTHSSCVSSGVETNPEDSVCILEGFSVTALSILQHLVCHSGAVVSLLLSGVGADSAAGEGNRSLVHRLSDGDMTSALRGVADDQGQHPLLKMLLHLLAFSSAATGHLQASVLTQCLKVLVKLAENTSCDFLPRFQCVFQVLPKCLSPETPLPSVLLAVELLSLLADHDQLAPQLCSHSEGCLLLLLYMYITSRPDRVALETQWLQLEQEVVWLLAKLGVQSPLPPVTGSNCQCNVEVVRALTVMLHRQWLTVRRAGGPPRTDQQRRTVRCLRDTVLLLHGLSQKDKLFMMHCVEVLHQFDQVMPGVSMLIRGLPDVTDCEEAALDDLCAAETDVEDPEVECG

As for `Clc1cc(N2CCOCC2)nc2c(-c3cc[nH]n3)nccc12` [Example 62, 4-chloro-2-morpholin-4-yl-8-(1H-pyrazol-3-yl)-[1,7]naphthyridine], the IC50 in assay [1] is above 3000 nM. In assay [2], `c1cc(-c2nccc3c(N4C[C@@H]5C[C@H]4CO5)cc(N4CCOCC4)nc23)[nH]n1` [Example 185, 2-(morpholin-4-yl)-4-[(1S,4S)-2-oxa-5-azabicyclo[2.2.1]hept-5-yl]-8-(1H-pyrazol-5-yl)-1,7-naphthyridine] yielded an IC50 of 852 nM.
